Reference: patent publication US10172357B2, “Fungicidal composition and method for controlling plant diseases” (ISHIHARA SANGYO KAISHA, LTD., priority 2015, dated 2019)

Tested on: Blumeria graminis
Test: Test on preventive effect against wheat powdery mildew (seed treatment)
Format: in vivo, Blumeria graminis on wheat (cultivar: Norin-61-go)
Conditions: seed coating, first leaf, 7 days after inoculation; for Lesion area ratio (%): non-treated plot 90
Text: 50 g of wheat seeds (cultivar: Norin-61-go), and predetermined amounts of an aqueous suspension containing pyriofenone 30% (WN) (tradename: PROPERTY FLOWABLE), an aqueous suspension containing fluazinam 50% (WN) (tradename: FROWNCIDE SC) and an aqueous suspension containing thiophanate-methyl 75% (WM) (tradename: TOPSIN M sol) so that the respective active ingredient amounts were as identified in Table 1 (g.a.i./100 kg seed), were put in a plastic bag, sufficiently stirred and air-dried to obtain seeds coated with a fungicidal composition. Ten seeds coated with a fungicidal composition were sown in a plastic pot (diameter: 7.5 cm, height: 6.8 cm, cylindrical black plastic pot, soil: culture soil). Wheat plants were cultivated in a greenhouse and at the 1-leaf stage, conidia of Blumeria graminis were dusted and inoculated, and the wheat plants were maintained in a constant temperature chamber at 20° C. The same operation was conducted with respect to seeds coated with the respective active ingredients individually, for comparison, as shown in Table 1. 7 days after the inoculation, the lesion area ratio on the first leaf was examined, and the control value was calculated based on the following formula. Further, theoretical values (control values) by use in combination were also calculated in accordance with the following Colby's formula. Control value=(1−a/b)×100 • a: lesion area ratio in treated plot • b: lesion area ratio in non-treated plot Colby's formula=(X+Y+Z)−(XY+YZ+ZX)/100+XYZ/10,000 • X: control value of component (a) used singly • Y: control value of component (b) used singly • Z: control value of component (c) used singly

[1] = fluazinam 3.3 g.a.i./100 kg seed
[2] = fluazinam 10 g.a.i./100 kg seed
[3] = pyriofenone 30 g.a.i./100 kg seed
[4] = thiophanate-methyl 23.3 g.a.i./100 kg seed
[5] = thiophanate-methyl 35 g.a.i./100 kg seed
[6] = thiophanate-methyl 70 g.a.i./100 kg seed

O=[N+]([O-])c1cc(C(F)(F)F)c(Cl)c([N+](=O)[O-])c1Nc1ncc(C(F)(F)F)cc1Cl [Fluazinam, N-(3-chloro-5-trifluoromethyl-2-pyridyl)-2,6-dinitro-3-chloro-4-trifluoromethylaniline]
Control value [1]: 0 | Lesion area ratio (%) [1]: 90% | Control value (fluazinam 5 g.a.i./100 kg seed): 0 | Lesion area ratio (%) (fluazinam 5 g.a.i./100 kg seed): 90% | Control value [2]: 0 | Lesion area ratio (%) [2]: 90%

COc1cc(C)c(C(=O)c2c(OC)ncc(Cl)c2C)c(OC)c1OC [Pyriofenone, 3-(2,3,4-trimethoxy-6-methylbenzoyl)-5-chloro-2-methoxy-4-methylpyridine]
Control value [3]: 44 | Lesion area ratio (%) [3]: 50%

COC(=O)NC(=S)Nc1ccccc1NC(=S)NC(=O)OC [Thiophanate-methyl, 1,2-di-(3-methoxycarbonyl-2-thioureido)benzene]
Control value [4]: 0 | Lesion area ratio (%) [4]: 90% | Control value [5]: 33 | Lesion area ratio (%) [5]: 60% | Control value [6]: 44 | Lesion area ratio (%) [6]: 50%
